Laboratory results from ChEMBL document CHEMBL5357011, “Chemical Catalysis Guides Structural Identification for the Major In Vivo Metabolite of the BET Inhibitor JQ1” (ACS Med Chem Lett, 2024).

Experiments:
Type in all cases: ADME, organism-based
Conditions in all cases: in vivo
[1] = AUC (0 to t) in male C57BL/6NJ mouse at 50 mg/kg, ip measured upto 24 hrs by UHPLC-ESI-Q-Orbitrap-MS analysis; design: time < 24 hrs, dose 50 mg/kg, route ip
[2] = AUC (0 to t) in female C57BL/6NJ mouse at 50 mg/kg, ip measured upto 24 hrs by UHPLC-ESI-Q-Orbitrap-MS analysis; design: dose 50 mg/kg, time < 24 hrs, route ip
[3] = Observed apparent oral clearance in male C57BL/6NJ mouse at 50 mg/kg, ip measured upto 24 hrs by UHPLC-ESI-Q-Orbitrap-MS analysis
[4] = Observed apparent oral clearance in female C57BL/6NJ mouse at 50 mg/kg, ip measured upto 24 hrs by UHPLC-ESI-Q-Orbitrap-MS analysis

Compound | AUCt [1] [µg/mL/h] | AUCt [2] [µg/mL/h] | CL/F [3] | CL/F [4]
Cc1sc2c(c1C)C(c1ccc(Cl)cc1)=N[C@@H](CC(=O)OC(C)(C)C)c1nnc(C)n1-2 | 75.1 | 41.1 | 0.661 (mg)/(ug/ml)/hr | 1.22 (mg)/(ug/ml)/hr
[2H]C([2H])([2H])c1sc2c(c1C)C(c1ccc(Cl)cc1)=N[C@@H](CC(=O)OC(C)(C)C)c1nnc(C)n1-2 | 94.2 | 50.5 | 0.528 (mg)/(ug/ml)/hr | 
